Results reported in patent publication US20090137626A1, “Pharmaceutical Composition Containing PPARgamma Agonist” (priority 2005, published 2009).
Counter-ions that a name gives are not always drawn.

Tested on: Male Zucker diabetic fatty (ZDF) rats
Assay: Test Example 1: elimination of blood lactate after intravenous sodium lactate load (blood lactate AUC 0 to 60 minutes)
Assay type: in vivo
Settings: sodium lactate 0.1 g/kg i.v., FIG. 1
Experimental: The animals of Group B and Group B+A were given free access for 1 week to Compound B mixed in powdered feed (FR-2 Powdered Laboratory Rodent Diet, Funabashi Farm Co., Ltd.) to a concentration of 0.001%. Animals of the control group and Group A were given free access to powdered feed for the same time period.
All animals were administered sodium lactate at 0.1 g/kg into the caudal vein one hour after oral administration. Blood samples were collected from the caudal vein immediately before and 5, 15, 30, 45 and 60 minutes after administration of sodium lactate, and blood lactate levels were measured using the Lactate Pro LT-1710 (Arkray, Inc.). The areas under the curve for blood lactate concentration (blood lactate AUC) were calculated from blood lactate levels from 0 to 60 minutes measured for each animal. A lower blood lactate AUC value indicates a more rapid elimination of lactate from the blood.

## COc1ccc2nc(COc3ccc(CC4SC(=O)NC4=O)cc3)n(C)c2c1 (centres unmarked) [Compound B, 5-{4-[(6-methoxy-1-methyl-1H-benzimidazol-2-yl)methoxy]benzyl}thiazolidine-2,4-dione hydrochloride]
Group B+A: Compound B 0.001% in feed for 1 week, then Compound A 300 mg/kg oral, relative to Group A (P<0.05, t-test)
  blood lactate AUC: decreased significantly
Group B: Compound B 0.001% in powdered feed for 1 week, alone, compared with control group (P<0.05, t-test)
  blood lactate AUC: decreased significantly
